Measured values published in US7732444B2, “2-(amino-substituted)-4-aryl pyrimidines and related compounds useful for treating inflammatory diseases” (Millennium Pharmaceuticals, Inc., priority 2004, dated 2010).
pIC50: −log10 of the molar value.

biological target: T1, full length PKC θ (Homo sapiens, UniProt Q04759); test: PKC-theta isoform inhibition assay (HTRF, 384 well plate); format: biochemical; details: full length PKC θ at 27 pM, peptide substrate 300 nM + 3 μM ATP, HTRF readout
T1 construct: 15 μL of full length PKC θ (Panvera Corporation); purchased Panvera Corporation
Experimental: An in vitro assay for detecting and measuring inhibition activity against PKC-theta isoform by candidate pharmacological agents is useful for evaluating and selecting a compound that modulates PKC-theta isoform. An IC50 value can be calculated after running the assay. Following is an assay protocol for measuring PKC-theta isoform.
Per well of a 384 well plate, compounds at various concentrations in 5 μL of 20% DMSO were pre-incubated for about 30 minutes at about 25° C. with 15 μL of full length PKC θ (Panvera Corporation) at 27 pM in an assay buffer (25 mM Hepes, pH 7.5, 5 mM DTT, 10 mM MgCl2, 10 mM 2-glycerophosphate, 12.5 μg/mL 1,2-dioleoyl-rac-glycerol, 10 μg/mL L-α-phosphatidyl-L-serine, 0.1% Bovine Serum Albumin). 10 μL of peptide substrate (biotin-(CH2)6— RFARKGSLRQKNV —CONH2) at 300 nM+3 μM ATP were added to each well and incubated for about 1 hour before quenching with 10 μL of 250 mM EDTA. 40 μL of detection buffer (25 mM Hepes, pH 7.5, 100 mM KF, 0.1% Bovine Serum Albumin, 0.01% Tween20) containing 2 nM anti-phospho antibody 2B9 (MBL International) labeled with europium cryptate (Cis-Bio International) and 0.0064 μg/mL streptavidin-allophycocyanin (Prozyme) was added to each well and incubated for two hours. Signal was then read on a Discovery HTRF (Packard).

T1 sequence (Q04759 whole entry, canonical isoform): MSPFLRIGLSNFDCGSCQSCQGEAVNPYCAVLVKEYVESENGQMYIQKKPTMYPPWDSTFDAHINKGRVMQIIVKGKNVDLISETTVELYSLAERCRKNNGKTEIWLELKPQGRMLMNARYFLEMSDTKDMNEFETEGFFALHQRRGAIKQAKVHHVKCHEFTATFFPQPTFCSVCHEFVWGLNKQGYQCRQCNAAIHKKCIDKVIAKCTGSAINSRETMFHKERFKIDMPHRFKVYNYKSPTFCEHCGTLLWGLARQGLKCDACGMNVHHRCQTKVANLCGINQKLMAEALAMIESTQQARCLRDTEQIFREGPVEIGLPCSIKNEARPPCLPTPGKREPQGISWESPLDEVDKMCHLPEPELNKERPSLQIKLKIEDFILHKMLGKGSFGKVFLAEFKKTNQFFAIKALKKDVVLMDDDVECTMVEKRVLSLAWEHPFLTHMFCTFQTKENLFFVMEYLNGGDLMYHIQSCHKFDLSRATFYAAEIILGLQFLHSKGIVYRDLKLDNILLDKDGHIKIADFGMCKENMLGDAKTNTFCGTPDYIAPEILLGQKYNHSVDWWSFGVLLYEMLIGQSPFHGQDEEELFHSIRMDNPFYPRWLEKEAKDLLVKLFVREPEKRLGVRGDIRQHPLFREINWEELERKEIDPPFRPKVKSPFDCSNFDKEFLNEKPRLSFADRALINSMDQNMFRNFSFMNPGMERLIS

pIC50, > 7.00:
CCNCc1cccc(-c2ccnc(NCCc3ccc(O)cc3)n2)c1 [Compound 131, 4-{2-[4-(3-Ethylaminomethyl-phenyl)-pyrimidin-2-ylamino]-ethyl}-phenol]
CS(=O)(=O)N(CCCN)Cc1cccc(-c2ccnc(NCCc3ccc(N)cc3)n2)c1 [Compound 5, N-(3-{2-[2-(4-Amino-phenyl)-ethylamino]-pyrimidin-4-yl}-benzyl)-N-(3-amino-propyl)-methanesulfonamide]
CCN(CC)CCCN(CC)Cc1cccc(-c2ccnc(NCCc3ccc(O)cc3)n2)c1 [Compound 126]
Cc1ncccc1C(=O)NCCCN(Cc1cccc(-c2ccnc(NCCc3ccc(O)cc3)n2)c1)S(C)(=O)=O [Compound 62]
Oc1cccc(CCNc2nccc(-c3cccc(NC4CCNCC4)c3)n2)c1 [Compound 49, 3-(2-{4-[3-(Piperidin-4-ylamino)-phenyl]-pyrimidin-2-ylamino}-ethyl)-phenol]
CC(C)NCc1cccc(-c2ccnc(NCCc3ccc(O)c(Cl)c3)n2)c1 [Compound 132, 2-Chloro-4-(2-{4-[3-(isopropylamino-methyl)-phenyl]-pyrimidin-2-ylamino}-ethyl)-phenol]
CCN(CCCN)Cc1cccc(-c2ccnc(NCCc3ccc(O)cc3)n2)c1 [Compound 1, (4-{2-[4-(3-{[(3-Amino-propyl)-ethyl-amino]-methyl}-phenyl)-pyrimidin-2-ylamino]-ethyl}-phenol)]
CS(=O)(=O)N(CCCN)Cc1cccc(-c2ccnc(NCCc3cc(Cl)c(O)c(Cl)c3)n2)c1 [Compound 29, N-(3-Amino-propyl)-N-(3-{2-[2-(3,5-dichloro-4-hydroxy-phenyl)-ethylamino]-pyrimidin-4-yl}-benzyl)-methanesulfonamide]
CCN(CC)CCCNCc1cccc(-c2ccnc(NCCc3ccc(O)cc3)n2)c1 [Compound 125, 4-[2-(4-{3-[(3-Diethylamino-propylamino)-methyl]-phenyl}-pyrimidin-2-ylamino)-ethyl]-phenol]
CS(=O)(=O)N(Cc1cccc(-c2nc(NCCc3ccc(O)cc3)ncc2F)c1)C1CCNCC1 [Compound 134, N-(3-{5-Fluoro-2-[2-(4-hydroxy-phenyl)-ethylamino]-pyrimidin-4-yl}-benzyl)-N-piperidin-4-yl-methanesulfonamide]
CC(c1cccc(-c2ccnc(NCCc3ccc(O)cc3)n2)c1)N(CCCN)S(C)(=O)=O (stereo not drawn) [Compound 104]
COc1cc(CCNc2nccc(-c3cccc(NC4CCNCC4)c3)n2)ccc1O [Compound 40, 2-Methoxy-4-(2-{4-[3-(piperidin-4-ylamino)-phenyl]-pyrimidin-2-ylamino}-ethyl)-phenol]
Oc1ccc(CCNc2nccc(-c3cccc(NC4CCNCC4)c3)n2)cc1Br [Compound 50, 2-Bromo-4-(2-{4-[3-(piperidin-4-ylamino)-phenyl]-pyrimidin-2-ylamino}-ethyl)-phenol]
C[C@H]1CNCCN1Cc1cccc(-c2ccnc(NCCc3cccc(F)c3)n2)c1 [Compound 130, [2-(3-Fluoro-phenyl)-ethyl]-{4-[3-(2-(S)-methyl-piperazin-1-ylmethyl)-phenyl]-pyrimidin-2-yl}-amine]
Oc1ccc(CCNc2nccc(-c3cccc(NC4CCNC4)c3)n2)cc1 (stereo not drawn) [Compound 55, 4-(2-{4-[3-(Pyrrolidin-3-ylamino)-phenyl]-pyrimidin-2-ylamino}-ethyl)-phenol]
Oc1ccc(CCNc2nccc(-c3cccc(NC4CCCNC4)c3)n2)cc1 (stereo not drawn) [Compound 53, 4-(2-{4-[3-(Piperidin-3-ylamino)-phenyl]-pyrimidin-2-ylamino}-ethyl)-phenol]
Oc1ccc(CCNc2nccc(-c3cccc(NC4CCCNC4)c3)n2)cc1Cl (stereo not drawn) [Compound 54, 2-Chloro-4-(2-{4-[3-(piperidin-3-ylamino)-phenyl]-pyrimidin-2-ylamino}-ethyl)-phenol]
Oc1ccc(CCNc2nccc(-c3cccc(NC4CCNCC4)c3)n2)cc1 [Compound 38, 4-(2-{4-[3-(Piperidin-4-ylamino)-phenyl]-pyrimidin-2-ylamino}-ethyl)-phenol]
Oc1ccc(CCNc2nccc(-c3cccc(CN4CC5CC4CN5)c3)n2)cc1 (stereo not drawn) [Compound 266, 4-(2-{4-[3-(2,5-Diaza-bicyclo[2.2.1]hept-2-ylmethyl)-phenyl]-pyrimidin-2-ylamino}-ethyl)-phenol]
Cc1c(CN2CCNC[C@@H]2C)cccc1-c1ccnc(NCCc2ccc(O)cc2)n1 [Compound 284, 4-(2-(4-(2-methyl-3-(((S)-2-methylpiperazin-1-yl)methyl)phenyl)pyrimidin-2-ylamino)ethyl)phenol]
Oc1ccc(CCNc2nccc(-c3cccc(NC4CCNCC4)c3)n2)cc1Cl [Compound 45, 2-Chloro-4-(2-{4-[3-(piperidin-4-ylamino)-phenyl]-pyrimidin-2-ylamino}-ethyl)-phenol]
CS(=O)(=O)N(CCCN)Cc1cccc(-c2ccnc(NCCc3ccc(O)c(Cl)c3)n2)c1 [Compound 24, N-(3-Amino-propyl)-N-(3-{2-[2-(3-chloro-4-hydroxy-phenyl)-ethylamino]-pyrimidin-4-yl}-benzyl)-methanesulfonamide]
CCN(CCCN)Cc1cccc(-c2nc(NCCc3ccc(O)c(F)c3)ncc2F)c1 [Compound 143, 4-{2-[4-(3-{[(3-Amino-propyl)-ethyl-amino]-methyl}-phenyl)-5-fluoro-pyrimidin-2-ylamino]-ethyl}-2-fluoro-phenol]
Oc1ccc(CCNc2nccc(-c3cccc(CN4CC5CC4CN5)c3)n2)cc1Cl (stereo not drawn) [Compound 265, 2-Chloro-4-(2-{4-[3-(2,5-diaza-bicyclo[2.2.1]hept-2-ylmethyl)-phenyl]-pyrimidin-2-ylamino}-ethyl)-phenol]
CS(=O)(=O)N(CCCNS(=O)(=O)Cc1ccccc1)Cc1cccc(-c2ccnc(NCCc3ccc(O)cc3)n2)c1 [Compound 64, N-{3-[(3-{2-[2-(4-Hydroxy-phenyl)-ethylamino]-pyrimidin-4-yl}-benzyl)-methanesulfonyl-amino]-propyl}-C-phenyl-methanesulfonamide]
Oc1ccc(CCNc2nccc(-c3cccc(CNCCc4ccccn4)c3)n2)cc1Cl [Compound 292, 2-chloro-4-(2-(4-(3-((2-(pyridinyl-2-yl)ethylamino)methyl)phenyl)pyrimidin-2-ylamino)ethyl)phenol]
CC(=O)N(Cc1cccc(-c2ccnc(NCCc3ccc(O)cc3)n2)c1)CC1CCNC1 (stereo not drawn) [Compound 120, N-(3-{2-[2-(4-Hydroxy-phenyl)-ethylamino]-pyrimidin-4-yl}-benzyl)-N-pyrrolidin-3-ylmethyl-acetamide]
Oc1c(Cl)cc(CCNc2nccc(-c3cccc(NC4CCNCC4)c3)n2)cc1Cl [Compound 48, 2,6-Dichloro-4-(2-{4-[3-(piperidin-4-ylamino)-phenyl]-pyrimidin-2-ylamino}-ethyl)-phenol]
COc1cc(CCNc2nccc(-c3cccc(OC(C)C)c3)n2)ccc1O [Compound 107, 4-{2-[4-(3-Isopropoxy-phenyl)-pyrimidin-2-ylamino]-ethyl}-2-methoxy-phenol]
COc1ccc(CCNc2nccc(-c3cccc(CN(CCCN)S(C)(=O)=O)c3)n2)cc1O [Compound 8, N-(3-Amino-propyl)-N-(3-{2-[2-(3-hydroxy-4-methoxy-phenyl)-ethylamino]-pyrimidin-4-yl}-benzyl)-methanesulfonamide]
C[C@H]1CNCCN1S(=O)(=O)c1cccc(-c2ccnc(NCCc3ccc(O)c(Cl)c3)n2)c1 [Compound 278]
CS(=O)(=O)N(CCCN)Cc1cccc(-c2ccnc(NCCc3ccc(O)cc3)n2)c1 [Compound 2, N-(3-Amino-propyl)-N-(3-{2-[2-(4-hydroxy-phenyl)-ethylamino]-pyrimidin-4-yl}-benzyl)-methanesulfonamide]
CS(=O)(=O)N(CCCNS(=O)(=O)c1ccccc1)Cc1cccc(-c2ccnc(NCCc3ccc(O)cc3)n2)c1 [Compound 65, N-{3-[(3-{2-[2-(4-Hydroxy-phenyl)-ethylamino]-pyrimidin-4-yl}-benzyl)-methanesulfonyl-amino]-propyl}-benzenesulfonamide]
CS(=O)(=O)N(Cc1cccc(-c2nc(NCCc3ccc(O)c(Cl)c3)ncc2F)c1)C1CCNCC1 [Compound 142, N-(3-{2-[2-(3-Chloro-4-hydroxy-phenyl)-ethylamino]-5-fluoro-pyrimidin-4-yl}-benzyl)-N-piperidin-4-yl-methanesulfonamide]
CS(=O)(=O)N(CCCN)Cc1cccc(-c2ccnc(NCCc3ccc(O)c(O)c3)n2)c1 [Compound 6, N-(3-Amino-propyl)-N-(3-{2-[2-(3,4-dihydroxy-phenyl)-ethylamino]-pyrimidin-4-yl}-benzyl)-methanesulfonamide]
NC(=O)C1CNCCN1Cc1cccc(-c2ccnc(NCCc3ccc(O)cc3)n2)c1 (stereo not drawn) [Compound 254, 1-(3-{2-[2-(4-Hydroxy-phenyl)-ethylamino]-pyrimidin-4-yl}-benzyl)-piperazine-2-carboxylic acid amide]
